Measurements reported in patent US12071425B2 (Genentech, Inc., priority 2018, dated 2024).
Where a name gives a salt, the structure may show the parent alone.

Target: kinase domain of IRE1 alpha (His-tagged kinase dead construct KR, AA G547-L977, D688N) (Homo sapiens (Human), UniProt O75460, D688N)
Experiment: IRE1α TR-FRET competition binding assay
Settings: competition with Kinase Tracer 236, 0.1 μM; one hour at room temperature
Procedure: To determine the affinity of compound binding to the kinase domain of IRE1 alpha, a Time Resolved Fluorescence Resonance Energy Transfer (TR-FRET) competition assay was used. A His-tagged IRE1 alpha kinase dead construct containing the kinase and RNase domains (KR, AA G547-L977, D688N) was expressed in Sf9 insect cells. The purified protein (final concentration 0.006 μM micromolar) was pre-incubated with anti-His Europium labeled antibody (Life Technologies PV5596, final concentration 0.002 μM micromolar) for one hour at 4° C. in 1X TR-FRET Assay Buffer (50 mM HEPES, pH 7.5.10 mM MgCl2, 0.083 mM Brij 35, 1 mM DTT, and 0.1% bovine gamma globulin) prior to addition to test compounds. A fluorescent labeled probe based on an ATP competitive inhibitor (Kinase Tracer 236, Life Technologies PV5592) is added to a final concentration of 0.1 μM (micromolar). Reactions were carried out for one hour at room temperature in a final volume of 20 μL (microliter) in 384 well white ProxiPlates (Perkin Elmer 6008289). Binding of the tracer to the IRE1 protein alpha was detected in an Envision instrument (PerkinElmer) equipped with a TRF laser option and a LANCE/Delfia Dual/Bias D400/D630 mirror (Ex 347 nm, 1st Em 665 nm, 2nd Em 615 nm).
Exemplary compounds in Table A1 were tested in the IRE1α binding assays.

Sequence of kinase domain of IRE1 alpha (His-tagged kinase dead construct KR, AA G547-L977, D688N) (O75460 547-977 D688N): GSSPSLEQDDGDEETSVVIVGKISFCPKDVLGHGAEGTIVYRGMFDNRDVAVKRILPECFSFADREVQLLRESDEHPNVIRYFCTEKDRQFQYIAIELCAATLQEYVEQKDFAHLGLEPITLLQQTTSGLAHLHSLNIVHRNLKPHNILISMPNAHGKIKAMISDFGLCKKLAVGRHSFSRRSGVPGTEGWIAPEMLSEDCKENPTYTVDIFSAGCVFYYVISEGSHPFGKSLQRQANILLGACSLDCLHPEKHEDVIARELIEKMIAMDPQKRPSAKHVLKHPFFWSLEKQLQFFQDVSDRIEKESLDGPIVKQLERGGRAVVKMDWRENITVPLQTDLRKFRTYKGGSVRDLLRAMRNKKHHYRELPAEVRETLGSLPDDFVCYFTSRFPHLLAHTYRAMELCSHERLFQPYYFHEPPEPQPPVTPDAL

Structure (SMILES): COC1CNCC(Nc2nccc(-c3cccnc3Oc3cc(F)c(NS(=O)(=O)Cc4ccccc4)c(F)c3F)n2)C1 (single isomer, unassigned) [Compound 318, 1-Phenyl-N-(2,3,6-trifluoro-4-((3-(2-((5-methoxypiperidin-3-yl)amino)pyrimidin-4-yl)pyridin-2-yl)oxy)phenyl)methanesulfonamide]
- IC50: 0.3 nM

Structure (SMILES): O=S(=O)(Cc1cc(F)ccc1F)Nc1c(F)cc(Oc2ncccc2-c2ccnc(N[C@@H]3CNC[C@@H](F)C3)n2)c(F)c1F [Compound 378, 1-(2,5-Difluorophenyl)-N-(2,3,6-trifluoro-4-((3-(2-(((3S,5S)-5-fluoropiperidin-3-yl)amino)pyrimidin-4-yl)pyridin-2-yl)oxy)phenyl)methanesulfonamide]
- IC50: 1.1 nM

Structure (SMILES): CC(F)(F)CCS(=O)(=O)Nc1ccc(Oc2ncccc2-c2ccnc(N[C@H]3CCCNC3)n2)c(F)c1F [Compound 149, (S)-N-(2,3-difluoro-4-((3-(2-(piperidin-3-ylamino)pyrimidin-4-yl)pyridin-2-yl)oxy)phenyl)-3,3-difluorobutane-1-sulfonamide hydrochloride]
- IC50: 8.7 nM

Structure (SMILES): CN1CCN(Cc2ccc(NC(=O)Nc3ccc(Oc4ncccc4-c4ccnc(N[C@@H]5CNC[C@@H](F)C5)n4)cc3)cc2C(F)(F)F)CC1 [Compound 285, 1-(4-((3-(2-(((3S,5S)-5-Fluoropiperidin-3-yl)amino)pyrimidin-4-yl)pyridin-2-yl)oxy)phenyl)-3-(4-((4-methylpiperazin-1-yl)methyl)-3-(trifluoromethyl)phenyl)urea hydrochloride]
- IC50: 8.9 nM

Structure (SMILES): O=S(=O)(Cc1ccccc1)Nc1c(F)cc(Oc2ncccc2-c2ccnc(N[C@@H]3CNC[C@H](CF)C3)n2)c(F)c1F [Compound 262, 1-Phenyl-N-(2,3,6-trifluoro-4-((3-(2-(((3S,5R)-5-(fluoromethyl)piperidin-3-yl)amino)pyrimidin-4-yl)pyridin-2-yl)oxy)phenyl)methanesulfonamide]
- IC50: 0.25 nM

Structure (SMILES): N#Cc1cccc(CS(=O)(=O)Nc2ccc(Oc3ncccc3-c3ccnc(N[C@H]4CCCNC4)n3)c(F)c2F)c1 [Compound 229, (S)-1-(3-cyanophenyl)-N-(2,3-difluoro-4-((3-(2-(piperidin-3-ylamino)pyrimidin-4-yl)pyridin-2-yl)oxy)phenyl)methanesulfonamide]
- IC50: 6.4 nM

Structure (SMILES): Cc1cc(CS(=O)(=O)Nc2c(F)cc(Oc3ncccc3-c3ccnc(N[C@H]4CCCNC4)n3)c(F)c2F)no1 [Compound 195, (S)-1-(5-methylisoxazol-3-yl)-N-(2,3,6-trifluoro-4-((3-(2-(piperidin-3-ylamino)pyrimidin-4-yl)pyridin-2-yl)oxy)phenyl)methanesulfonamide]
- IC50: 4.6 nM

Structure (SMILES): N#Cc1ccc(CS(=O)(=O)Nc2ccc(Oc3ncccc3-c3ccnc(N[C@H]4CCCNC4)n3)c(F)c2F)cc1 [Compound 166, (S)-1-(4-cyanophcnyl)-N-(2,3-difluoro-4-((3-(2-(piperidin-3-ylamino)pyrimidin-4-yl)pyridin-2-yl)oxy)phenyl)methanesulfonamide]
- IC50: 3.5 nM

Structure (SMILES): O=S(=O)(Cc1ccc(C(F)(F)F)cc1)Nc1c(F)cc(Oc2ncccc2-c2ccnc(N[C@@H]3CNC[C@@H](F)C3)n2)c(F)c1F [Compound 370, N-(2,3,6-Trifluoro-4-((3-(2-(((3S,5S)-5-fluoropiperidin-3-yl)amino)pyrimidin-4-yl)pyridin-2-yl)oxy)phenyl)-1-(4-(trifluoromethyl)phenyl)methanesulfonamide]
- IC50: 2 nM

Structure (SMILES): CC(C)(C#N)CCS(=O)(=O)Nc1ccc(Oc2ncccc2-c2ccnc(N[C@H]3CCCNC3)n2)c(F)c1F [Compound 210, (S)-3-cyano-N-(2,3-difluoro-4-((3-(2-(piperidin-3-ylamino)pyrimidin-4-yl)pyridin-2-yl)oxy)phenyl)-3-methylbutane-1-sulfonamide]
- IC50: 23 nM

Structure (SMILES): Cc1ccc(C(=O)NS(=O)(=O)c2ccccc2Cl)cc1Oc1ncccc1-c1ccnc(N[C@H]2CCCNC2)n1 [Compound 103, (S)-N-((2-chlorophenyl)sulfonyl)-4-methyl-3-((3-(2-(piperidin-3-ylamino)pyrimidin-4-yl)pyridin-2-yl)oxy)benzamide]
- IC50: 30 nM

Structure (SMILES): O=S(=O)(Cc1ccc(F)cc1F)Nc1c(F)cc(Oc2ncccc2-c2ccnc(N[C@@H]3CNC[C@@H](F)C3)n2)c(F)c1F [Compound 351, 1-(2,4-Difluorophenyl)-N-[2,3,6-trifluoro-4-[[3-[2-[[(3S,5S)-5-fluoro-3-piperidyl]amino]pyrimidin-4-yl]-2-pyridyl]oxy]phenyl]methanesulfonamide]
- IC50: 0.91 nM

Structure (SMILES): O=S(=O)(CCC1CC1(F)F)Nc1ccc(Oc2ncccc2-c2ccnc(N[C@H]3CCCNC3)n2)c(F)c1F (stereo partly drawn) [Compound 217, N-(2,3-difluoro-4-((3-(2-(((S)-piperidin-3-yl)amino)pyrimidin-4-yl)pyridin-2-yl)oxy)phenyl)-2-(2,2-difluorocyclopropyl)ethane-1-sulfonamide]
- IC50: 16 nM

Structure (SMILES): O=S(=O)(Nc1cccc(Oc2ncccc2-c2ccnc(N[C@H]3CCCNC3)n2)c1F)c1ccccc1Cl [Compound 141, (S)-2-Chloro-N-(2-fluoro-3-((3-(2-(piperidin-3-ylamino)pyrimidin-4-yl)pyridin-2-yl)oxy)phenyl)benzenesulfonamide hydrochloride]
- IC50: 17 nM

Structure (SMILES): COc1cc(Oc2ncccc2-c2ccnc(N[C@@H]3CNC[C@@H](F)C3)n2)cc(F)c1NS(=O)(=O)Cc1ccccc1 [Compound 296, N-(2-Fluoro-4-((3-(2-(((3S,5S)-5-fluoropiperidin-3-yl)amino)pyrimidin-4-yl)pyridin-2-yl)oxy)-6-methoxyphenyl)-1-phenylmethanesulfonamide]
- IC50: 14 nM

Structure (SMILES): O=S(=O)(Nc1c(F)cc(Oc2ncccc2-c2ccnc(N[C@@H]3CNC[C@@H](F)C3)n2)c(F)c1F)C1CCCC1 [Compound 369, N-(2,3,6-Trifluoro-4-((3-(2-(((3S,5S)-5-fluoropiperidin-3-yl)amino)pyrimidin-4-yl)pyridin-2-yl)oxy)phenyl)cyclopentanesulfonamide]
- IC50: 1.2 nM

Structure (SMILES): O=S(=O)(CC1CCCC1)Nc1ccc(Oc2ncccc2-c2ccnc(N[C@H]3CCCNC3)n2)c(F)c1F [Compound 228, (S)-1-cyclopentyl-N-(2,3-difluoro-4-((3-(2-(piperidin-3-ylamino)pyrimidin-4-yl)pyridin-2-yl)oxy)phenyl)methanesulfonamide]
- IC50: 9.2 nM

Structure (SMILES): CN1CCN(Cc2ccc(NC(=O)Nc3cccc(Oc4ncccc4-c4ccnc(N[C@@H]5CNC[C@@H](F)C5)n4)c3)cc2C(F)(F)F)CC1 [Compound 286, 1-(3-((3-(2-(((3S,5S)-5-Fluoropiperidin-3-yl)amino)pyrimidin-4-yl)pyridin-2-yl)oxy)phenyl)-3-(4-((4-methylpiperazin-1-yl)methyl)-3-(trifluoromethyl)phenyl)urea hydrochloride]
- IC50: 260 nM

Structure (SMILES): Cc1ccc(CS(=O)(=O)Nc2c(C)cc(Oc3ncccc3-c3ccnc(N[C@@H]4CNC[C@@](C)(F)C4)n3)c(F)c2F)cc1 [Compound 305, N-(2,3-Difluoro-4-((3-(2-(((3S,5S)-5-fluoro-5-methylpiperidin-3-yl)amino)pyrimidin-4-yl)pyridin-2-yl)oxy)-6-methylphenyl)-1-(p-tolyl)methanesulfonamide]
- IC50: 0.21 nM

Structure (SMILES): O=S(=O)(Cc1ccccc1)Nc1c(F)cc(Oc2ncccc2-c2ccnc(N[C@@H]3CNC[C@@H](F)C3)n2)c(F)c1F [Compound 176, 1-Phenyl-N-(2,3,6-trifluoro-4-((3-(2-(((3S,5S)-5-fluoropiperidin-3-yl)amino)pyrimidin-4-yl)pyridin-2-yl)oxy)phenyl)methanesulfonamide]
- IC50: 2.5 nM

Structure (SMILES): CCCS(=O)(=O)Nc1ccc(Cl)c(Oc2ncccc2-c2ccnc(N[C@H]3CCCNC3)n2)c1F [Compound 143, (S)—N-(4-Chloro-2-fluoro-3-((3-(2-(piperidin-3-ylamino)pyrimidin-4-yl)pyridin-2-yl)oxy)phenyl)propane-1-sulfonamide hydrochloride]
- IC50: 34 nM

Structure (SMILES): O=S(=O)(Cc1ccc(Cl)cc1F)Nc1c(F)cc(Oc2ncccc2-c2ccnc(N[C@@H]3CNC[C@@H](F)C3)n2)c(F)c1F [Compound 364, 1-(4-Chloro-2-fluoro-phenyl)-N-[2,3,6-trifluoro-4-[[3-[2-[[(3S,5S)-5-fluoro-3-piperidyl]amino]pyrimidin-4-yl]-2-pyridyl]oxy]phenyl]methanesulfonamide]
- IC50: 0.3 nM

Structure (SMILES): COc1ccc(CS(=O)(=O)Nc2c(F)cc(Oc3ncccc3-c3ccnc(N[C@@H]4CNC[C@@](C)(F)C4)n3)c(F)c2F)cc1 [Compound 304, 1-(4-Methoxyphenyl)-N-(2,3,6-trifluoro-4-((3-(2-(((3S,5S)-5-fluoro-5-methylpiperidin-3-yl)amino)pyrimidin-4-yl)pyridin-2-yl)oxy)phenyl)methanesulfonamide]
- IC50: 0.23 nM

Structure (SMILES): O=S(=O)(Cc1ccccc1)Nc1cc(F)c(Oc2ncccc2-c2ccnc(N[C@H]3CCCNC3)n2)cc1F [Compound 107, (S)-N-(2,5-difluoro-4-((3-(2-(piperidin-3-ylamino)pyrimidin-4-yl)pyridin-2-yl)oxy)phenyl)-1-phenylmethanesulfonamide hydrochloride]
- IC50: 5.2 nM
